# Assay results: US20060104944A1, “Activators and inhibitors of protease activated receptor2 (PAR2) and methods of use” (priority 2004, published 2006)
# No end group written: not given here. *: point of attachment. tc = trans-cinnamoyl N-cap, O=C(/C=C/c1ccccc1)*; code O = not defined here
# Key:
# [1] = test system: chick chorioallantoic membrane (CAM); test: Neovascularization in the chick chorioallantoic membrane (CAM) model; format: in vivo; settings: Table 5; for Mean % Inhibition ± SEM: inhibition of PAR-2 (SEQ ID NO: 3, 0.3 ug/ml) stimulated angiogenesis, inhibitor doses as E12
# [2] = test system: chick chorioallantoic membrane (CAM); test: as above; format: in vivo; settings: for PAR2-induced angiogenesis in the CAM model: in words, FIG. 3, Table 5; for Branch Points ± SEM: Table 3, agent alone: FGF2 1 ug/ml, VEGF 2 ug/ml, PAR-1 3 ug, PAR-2 0.3 ug, n = 8; for Mean Number of Branch Points ± SD: Table 4, agent alone: FGF2 1.0 μg, PAR2 agonist 5.0 μg, TF/factor VIIa, N = 16
# Procedure: In vivo neovascularization was examined by the method previously described by Auerbach et al. (Auerbach et al., J. Dev. Biol., 41:391-394 (1974), which is hereby incorporated by reference in its entirety). Ten-day old embryos were purchased from Spafas, Inc. (Preston, Conn.) and were incubated at 37° C. with 55% relative humidity. In the dark with the help of a candling lamp, a small hole was punctured in the shell concealing the air sac with a hypodermic needle. A second hole was punctured in the shell on the broadside of the egg directly over an avascular portion of the embryonic membrane, as observed during candling. A false air sac was created beneath the second hole by the application of negative pressure to the first hole, which caused the chorioallantoic membrane (CAM) to separate from the shell. A window, approximately 1.0 cm^2, was cut in the shell over the dropped CAM with the use of a small crafts grinding wheel (Dremel, Division of Emerson Electric Company Racine, Wisconsin) which allowed direct access to the underlying CAM. Filter disks of #1 filter paper (Whatman International, United Kingdom) were soaked in 3 mg/ml cortisone acetate (Sigma, St. Louis, Mo.) in a solution of 95% ethanol and water and subsequently air dried under sterile conditions. FGF2 (Life Technologies, Gaithersburg, Md.) was used to grow vessels on the CAMs of 10 day old chick embryos. Sterile filter disks adsorbed with FGF2 dissolved in PBS at 1 μg/ml were placed on growing CAMs. […] At 24 h, test compounds or control vehicle was added directly to CAM topically.
# (§1) CAM tissue directly beneath FGF2-saturated filter disk was resected from embryos treated 48 hours prior with test compound or control. Tissues were washed three times with PBS. Sections were placed in a 35-mm petri dish (Nalge Nunc, Rochester, N.Y.) and examined under a SV6 stereomicroscope (Karl Zeiss, Thornwood, N.Y.) at 50× magnification. Digital images of CAM sections adjacent to filters were collected using a 3-CCD color video camera system (Toshiba America, New York, N.Y.) and analyzed using Image-Pro Plus software (Media Cybernetics, Silver Spring, Md.).
# as §1, with “48 h” for “48 hours”, “with” for “with test”, “analyzed with the” for “analyzed using”
# [3] = biological target: T1, PAR-1 (Homo sapiens, UniProt P25116); settings: PAR-1 antagonist, variety of bioassays; cited from earlier work
# T1 sequence (P25116 22-425): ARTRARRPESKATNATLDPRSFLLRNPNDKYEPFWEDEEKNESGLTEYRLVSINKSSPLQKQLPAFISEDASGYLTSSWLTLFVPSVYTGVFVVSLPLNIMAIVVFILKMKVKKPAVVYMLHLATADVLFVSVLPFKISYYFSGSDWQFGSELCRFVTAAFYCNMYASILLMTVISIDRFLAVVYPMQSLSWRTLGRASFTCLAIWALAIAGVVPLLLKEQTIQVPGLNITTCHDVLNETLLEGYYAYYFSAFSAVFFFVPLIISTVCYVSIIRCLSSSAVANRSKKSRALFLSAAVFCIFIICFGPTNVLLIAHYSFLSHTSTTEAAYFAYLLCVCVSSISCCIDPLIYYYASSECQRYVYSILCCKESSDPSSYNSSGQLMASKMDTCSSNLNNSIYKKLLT
# [4] = biological target: T2, PAR-2 (Homo sapiens, UniProt P55085); settings: in words; cited from earlier work
# T2 sequence (P55085 26-397): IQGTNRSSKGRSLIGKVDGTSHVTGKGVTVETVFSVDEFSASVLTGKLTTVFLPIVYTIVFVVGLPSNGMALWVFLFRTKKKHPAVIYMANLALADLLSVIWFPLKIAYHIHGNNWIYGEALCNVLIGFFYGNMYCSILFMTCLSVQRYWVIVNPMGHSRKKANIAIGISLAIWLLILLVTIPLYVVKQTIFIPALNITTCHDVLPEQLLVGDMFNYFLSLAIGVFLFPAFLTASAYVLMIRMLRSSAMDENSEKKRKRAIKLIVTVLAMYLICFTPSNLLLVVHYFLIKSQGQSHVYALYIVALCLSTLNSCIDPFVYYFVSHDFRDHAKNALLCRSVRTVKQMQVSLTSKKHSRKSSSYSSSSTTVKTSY
# [5] = test system: Human umbilical vein endothelial cells (HUVEC); test: Endothelial cell tube formation on Matrigel; format: cell-based; settings: agent alone; FGF2 0.1 μg, PAR2 agonist 0.25 μg; n = 3
# Procedure: Differentiation by endothelial cells was examined using a method developed by Grant et al. (Grant et al., In Vitro Cell Dev. Biol., 27A:327-336 (1991), which is hereby incorporated by reference in its entirety). Matrigel® matrix, phenol-red free (commercially available from Becton Dickinson, Bedford, Mass.) was thawed overnight at 4° C. Using cold pipette tips, 3.0 mg/well of Matrigel® matrix was placed in a cold twenty-four-multiwell plate (Falcon). Matrigel® matrix was allowed to polymerize during incubation at 37° C. for 30 minutes.
# Human umbilical vein endothelial cells (HUVEC) were maintained at 37° C. with 5% CO2 and 95% humidity in endothelial cell growth medium with 2% fetal bovine serum (EGM). The tube assay was performed in endothelial cell basal medium (EBM) supplemented with 0.5% bovine serum albumin (BSA) and 1:100 diluted Insulin-Transferrin-Selenium-G supplement (I-T-Se, 100×). HUVEC were trypsinized, centrifuged, and, subsequently, washed twice in phosphate buffered saline (PBS). […] Digital images of micro-titer well sections were collected using a DKC5000 3-CCD color video camera system (Toshiba America, New York, N.Y.) and analyzed using Image-Pro Plus software (Media Cybernetics, Silver Spring, Md.). The area and major axis length of stained cells having a tubular morphology was measured on the Matrigel® matrix surface (Becton Dickinson, Bedford, Pa.).
# [6] = biological target: T1, PAR-1; settings: at PAR-1; in words; cited from earlier work
# [7] = test system: rat aorta; settings: in words; cited from earlier work
# [8] = test system: Human dermal micro-vascular endothelial cells (HDMEC); test: In vitro 3D sprout angiogenesis (vessel tube length) assay; format: cell-based; settings: agent alone, 1 ug
# Procedure: Culture of HDMEC on micro-carrier beads: 80% confluent HDMEC (Passage 5-10) were mixed with gelatin-coated Cytodex-3 beads with a ratio of 40 cells per bead. Suspend cells and beads (150-200 beads per well for 24-well plate) with 5 ml EBM+15% normal human serum, mix gently every one hour for first four hours, then leave the mixture culture in CO2 incubator overnight. The next morning, add 10 ml of fresh EBM+15% HS and culture for another three hours. Before experiments, check the culture of EC-beads. Add 500 μl of PBS in a well of 24-well plate, take 100 ul of the EC-bead culture solution, and add it to the PBS, observe and count the number of beads, calculate the concentration of EC-beads. The EC-beads are good for experiments for 48 hours.
# Prepare fibrinogen solution (1 mg/ml) in EBM medium with or without angiogenesis factors or testing factors. For positive control, use 30 ng/ml VEGF+25 ng/ml FGF2. Wash EC-beads with EBM medium for two times and add EC-beads to fibrinogen solution. For each condition, do experiment in triplicates. Mix the EC-beads in fibrinogen solution gently and add 2.5 μl human thrombin (0.05 U/μl) in 1 ml fibrinogen solution, immediately transfer 300 ul to each well of 24-well plate. The fibrinogen solution will polymerize in 5-10 minutes, after 20 minutes, add EBM+20% normal human serum+10 μg/ml Aprotinin. Incubate the plate in CO2 incubator. […]
# [9] = biological target: T2, PAR-2; settings: at PAR-2; in words; cited from earlier work
# [10] = test system: isolated blood vessel preparations; settings: in words, cited from earlier work
# [11] = PAR-2 (SEQ ID NO: 3, 0.3 ug/ml) + inhibitor: XT199 10 ug, anti-VII/VIIa 3 ug, PD98059 5 ug, Hirudin 1 U, PAR-2 mAb 3 ug, anti-TF mAb 2 ug
compound,measurement,setting,value
COc1cccc(-c2cc(=O)c3ccccc3o2)c1N [PD98059],Mean Branch points ± SEM,[1]; [11],102 ± 9
same,Mean % Inhibition ± SEM,[1],88 ± 12%
same,PAR2-induced angiogenesis in the CAM model,[2],blocked
NCC[C@H](NC(=O)[C@H](Cc1ccc(F)c(F)c1)NC(=O)Nc1ccc2c(CN3CCCC3)cn(Cc3c(Cl)cccc3Cl)c2c1)C(=O)NCc1ccccc1 [RWJ-56110],IC50,[3],100 to 500 nM
same,activity as a PAR-2 antagonist,[4],inactive
FGF2: human fibroblast growth factor basic,Mean Endothelial tube length (mm) ± SD,[5],64 ± 5 mm
same,increase in angiogenesis index,[2]; 1 μg of FGF2,2-3 fold
same,Branch Points ± SEM,[2],182 ± 11
same,Mean Number of Branch Points ± SD,[2],198 ± 14
"FSLLRY [FSLLRY-NH2, PAR2 antagonist]",agonistic activity,[6],lack agonistic activity
same,trypsin relaxant activity,[7],antagonize
HOOC-L-I-G-R-L-O-NH2 (LIGRL-{code O-NH2}; reading uncertain; also: 'HOOC-' written at N-terminus) [SEQ ID NO: 3],Mean Branch points ± SEM,"[1]; PAR-2 agonist alone, 0.3 ug/ml, n = 8",176 ± 14
same,Mean Branch points ± SEM,"[1]; PAR-2 agonist alone, 0.3 ug/ml, n = 8, listed as PAR-2",186 ± 17
HOOC-S-L-I-G-K-V-NH2 (SLIGKV-NH2; also: 'HOOC-' written at N-terminus) [SEQ ID NO: 5],Vessel Length(mm) ± SEM,[8],1.39 ± 0.28 mm
same,Branch Points ± SEM,[2],197 ± 15
same,Mean Number of Branch Points ± SD,[2],205 ± 8
HOOC-S-L-I-G-R-L-NH2 (SLIGRL-NH2; also: 'HOOC-' written at N-terminus) [SEQ ID NO: 4],Mean Endothelial tube length (mm) ± SD,[5],58 ± 4 mm
Hirudin,Mean Branch points ± SEM,[1]; [11],174 ± 9
same,Mean % Inhibition ± SEM,[1],3 ± 8%
same,PAR2-induced angiogenesis in the CAM model,[2],not
"LSIGRL [LSIGRL-NH2, PAR2 antagonist]",agonistic activity,[9],lack agonistic activity
"TFLLRN [SEQ ID NO: 6, PAR1 agonist peptide used for comparison]",Vessel Length(mm) ± SEM,[8],0.88 ± 0.08 mm
same,Branch Points ± SEM,[2],101 ± 7
VEGF,Branch Points ± SEM,[2],168 ± 10
tc-LIGRLO (tc-LIGRL-{code O}; reading uncertain; also: printed as tc-LIGRLO),activity in the relaxation assay,[10]; compared with SLIGRL,equally active
same,contraction,[10],does not cause contraction
